# Data taken from patent US8329730B2, “Compounds” (Glaxo Group Limited, priority 2008, dated 2012).
# pEC50: −log10 of the molar value. Counter-ions that a name gives are not always drawn.
# Molecular target: T1, human S1P3 receptor (Homo sapiens, UniProt Q99500)
# T1 construct: expressed in transfected cells; membranes
# Assay: S1P3 GTPγS binding assay (and alternative method)
# Format: biochemical
# Details: in one of the above S1P3 GTPγS binding assays (first or alternative method, RBL membranes)
# Method: For membrane preparations all steps were performed at 4° C. Rat hepatoma cells stably expressing the human S1P1 receptor or Rat Basophilic Leukaemia cells (RBL) stably expressing human S1P3 receptor were grown to 80% confluency before being harvested into 10 ml Phospho-Buffered Saline (PBS) and centrifuged at 1200 rpm […]. After removal of the supernatant, the pellet was re-suspended and cells were homogenised within a glass Waring blender for 2 bursts of 15 secs in 200 mls of buffer (50 mM HEPES, 1 mM leupeptin, 25 μg/ml bacitracin, 1 mM EDTA, 1 mM PMSF, 2 μM pepstatin A). The blender was plunged into ice for 5 mins after the first burst and 10-40 mins after the final burst to allow foam to dissipate. The material was then spun at 500 g for 20 mins and the supernatant spun for 36 mins at 48,000 g. The pellet was resuspended in the same buffer as above but without PMSF and pepstatin A. The material was then forced through a 0.6 mm needle, made up to the required volume, (usually ×4 the volume of the original cell pellet), aliquoted and stored frozen at −80° C. […] The final assay cocktail (10.1 μl) was centrifuged at 1000 rpm for 5 minutes then read immediately on a Viewlux reader. […] The final assay cocktail (10.1 μl) was then sealed, spun on a centrifuge, then read immediately on a Viewlux instrument.
# T1 sequence (Q99500 whole entry): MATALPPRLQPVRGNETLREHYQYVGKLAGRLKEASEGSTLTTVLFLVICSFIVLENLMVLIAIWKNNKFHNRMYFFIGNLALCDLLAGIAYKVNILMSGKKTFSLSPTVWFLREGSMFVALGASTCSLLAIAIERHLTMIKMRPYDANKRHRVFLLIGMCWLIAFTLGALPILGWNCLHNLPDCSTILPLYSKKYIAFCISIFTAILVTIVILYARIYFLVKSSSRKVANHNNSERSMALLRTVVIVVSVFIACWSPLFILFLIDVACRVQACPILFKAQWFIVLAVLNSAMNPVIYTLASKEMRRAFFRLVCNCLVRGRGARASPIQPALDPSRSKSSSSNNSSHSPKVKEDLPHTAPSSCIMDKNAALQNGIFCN
row,SMILES,pEC50
1,"CC(C)Oc1ccc(-c2nc(-c3cccc4c(N5CCC(C(=O)O)CC5)nccc34)no2)cc1Cl [Example 4, 1-[5-(5-{3-Chloro-4-[(1-methylethyl)oxy]phenyl}-1,2,4-oxadiazol-3-yl)-1-isoquinolinyl]-4-piperidinecarboxylic acid lithium salt]",5.50

# Molecular target: T2, human S1P1 receptor (Homo sapiens, UniProt P21453)
# T2 construct: expressed in transfected cells; membranes
# T2 sequence (P21453 whole entry): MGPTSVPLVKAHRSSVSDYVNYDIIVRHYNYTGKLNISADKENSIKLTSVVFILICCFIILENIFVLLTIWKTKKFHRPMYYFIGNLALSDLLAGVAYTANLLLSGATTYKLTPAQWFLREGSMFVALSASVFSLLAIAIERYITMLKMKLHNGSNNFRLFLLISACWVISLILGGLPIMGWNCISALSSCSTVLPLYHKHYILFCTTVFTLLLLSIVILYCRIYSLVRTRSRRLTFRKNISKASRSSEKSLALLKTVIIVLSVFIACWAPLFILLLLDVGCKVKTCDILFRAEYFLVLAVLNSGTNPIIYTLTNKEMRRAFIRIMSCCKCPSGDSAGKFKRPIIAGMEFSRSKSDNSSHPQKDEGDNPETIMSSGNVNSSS
# Assay: S1P1 GTPγS binding assay (and alternative method)
# Format: biochemical
# Details: in one of the above S1P1 GTPγS binding assays (first or alternative method, RH7777 membranes)
# Method: For membrane preparations all steps were performed at 4° C. Rat hepatoma cells stably expressing the human S1P1 receptor or Rat Basophilic Leukaemia cells (RBL) stably expressing human S1P3 receptor were grown to 80% confluency before being harvested into 10 ml Phospho-Buffered Saline (PBS) and centrifuged at 1200 rpm […]. After removal of the supernatant, the pellet was re-suspended and cells were homogenised within a glass Waring blender for 2 bursts of 15 secs in 200 mls of buffer (50 mM HEPES, 1 mM leupeptin, 25 μg/ml bacitracin, 1 mM EDTA, 1 mM PMSF, 2 μM pepstatin A). The blender was plunged into ice for 5 mins after the first burst and 10-40 mins after the final burst to allow foam to dissipate. The material was then spun at 500 g for 20 mins and the supernatant spun for 36 mins at 48,000 g. The pellet was resuspended in the same buffer as above but without PMSF and pepstatin A. The material was then forced through a 0.6 mm needle, made up to the required volume, (usually ×4 the volume of the original cell pellet), aliquoted and stored frozen at −80° C. Human S1P1 rat hepatoma membranes (1.5 μg/well) were adhered to a wheatgerm agglutinin (WGA)-coated scintillation proximity assay (SPA) beads (0.125 mg/well) in assay buffer (HEPES 20 mM, MgCl2 10 mM, NaCl 100 mM and pH adjusted to 7.4 using KOH 5M, GDP 10 μM FAC (final assay concentration) and saponin 90 μg/ml FAC was also added). After 30 minutes pre-coupling on ice the bead and membrane suspension was dispensed into a white Greiner polypropylene LV384-well plate (5 μl/well), containing 0.1 μl of the compound. 5 μl/well [^35S]-GTPγS (0.5 nM final radioligand conc) made up in assay buffer was then added to agonist plates. The final assay cocktail […] was then centrifuged at 1000 rpm for 5 minutes then read immediately on a Viewlux reader. All test compounds were dissolved in DMSO at a concentration of 10 mM and were prepared in 100% DMSO using a 1 in 4 dilution step to provide 11 point dose response curves. The dilutions were transferred to the assay plates ensuring that the DMSO concentration was constant across the plate for all assays. All data was normalized to the mean of 16 high and 16 low control wells on each plate. A four parameter curve fit was then applied. S1P1 expressing RH7777 membranes (1.5 μg/well) […] were homogenised by passing through a 23G needle. These were then adhered to WGA-coated SPA beads (0.125 mg/well) in assay buffer (HEPES 20 mM, MgCl2 10 mM, NaCl 100 mM and pH adjusted to 7.4 using KOH 5M). GDP 10 μM FAC and saponin 90 μg/ml FAC were also added After 30 minutes precoupling on ice, the bead and membrane suspension was dispensed into white Greiner polypropylene LV 384-well plates (5 μl/well), containing 0.1 μl of compound. 5 μl/well [^35S]-GTPγS (0.5 nM for S1P1 or 0.3 nM for S1P3 final radioligand concentration) made in assay buffer was then added to the plates. The final assay cocktail (10.1 μl) was then sealed, spun on a centrifuge, then read immediately on a Viewlux instrument.
row,SMILES,pEC50
1,"CC(C)Oc1ncc(-c2nc(-c3cccc4c(CCC(=O)O)nccc34)no2)cc1Cl [Example 27, 3-[5-(5-{5-Chloro-6-[(1-methylethyl)oxy]-3-pyridinyl}-1,2,4-oxadiazol-3-yl)-1-isoquinolinyl]propanoic acid]",≥ 8.00
2,"CC(C)Oc1ccc(-c2nc(-c3cccc4c(CCC(=O)O)nccc34)no2)cc1Cl [Example 1, 3-[5-(5-{3-Chloro-4-[(1-methylethyl)oxy]phenyl}-1,2,4-oxadiazol-3-yl)-1-isoquinolinyl]propanoic acid lithium salt]",≥ 8.00
3,"O=C(O)CCc1nccc2c(-c3noc(-c4ccc(OCC(F)(F)F)c(Cl)c4)n3)cccc12 [Example 24, 3-[5-(5-{3-Chloro-4-[(2,2,2-trifluoroethyl)oxy]phenyl}-1,2,4-oxadiazol-3-yl)-1-isoquinolinyl]propanoic acid hydrochloride]",≥ 8.00
4,"CC(C)Oc1ccc(-c2nc(-c3cccc4c(N5CCC(C(=O)O)CC5)nccc34)no2)cc1Cl [Example 4, 1-[5-(5-{3-Chloro-4-[(1-methylethyl)oxy]phenyl}-1,2,4-oxadiazol-3-yl)-1-isoquinolinyl]-4-piperidinecarboxylic acid lithium salt]",≥ 8.00
5,"CC(C)Oc1ccc(-c2nc(-c3cccc4c(CCC(=O)O)nccc34)no2)cc1C#N [Example 26, 3-[5-(5-{3-Cyano-4-[(1-methylethyl)oxy]phenyl}-1,2,4-oxadiazol-3-yl)-1-isoquinolinyl]propanoic acid hydrochloride]",≥ 8.00
6,"CC(C)Oc1ncc(-c2nc(-c3cccc4c(CCCC(=O)O)nccc34)no2)cc1Cl [Example 30, 4-[5-(5-{5-Chloro-6-[(1-methylethyl)oxy]-3-pyridinyl}-1,2,4-oxadiazol-3-yl)-1-isoquinolinyl]butanoic acid]",≥ 8.00
